Data from patent publication US6245817A, “NPY5 receptor antagonists and methods for using same” (Bayer Corporation, priority 1999, dated 2001).
Structures can show the parent of a compound that is named as a salt.

Experiments:
Rat NPY5 Receptor [1] = biological target: T1, Rat NPY5 Receptor (Rattus norvegicus, UniProt Q63634); test: Rat NYP5 Cyclase Assay (In Vitro Functional Assay); format: cell-based; settings: 20 min, percentage of forskolin-stimulated adenylate cyclase, read-out: rNPY5 % FSAC (10 μM)
T1 sequence (Q63634 1-445): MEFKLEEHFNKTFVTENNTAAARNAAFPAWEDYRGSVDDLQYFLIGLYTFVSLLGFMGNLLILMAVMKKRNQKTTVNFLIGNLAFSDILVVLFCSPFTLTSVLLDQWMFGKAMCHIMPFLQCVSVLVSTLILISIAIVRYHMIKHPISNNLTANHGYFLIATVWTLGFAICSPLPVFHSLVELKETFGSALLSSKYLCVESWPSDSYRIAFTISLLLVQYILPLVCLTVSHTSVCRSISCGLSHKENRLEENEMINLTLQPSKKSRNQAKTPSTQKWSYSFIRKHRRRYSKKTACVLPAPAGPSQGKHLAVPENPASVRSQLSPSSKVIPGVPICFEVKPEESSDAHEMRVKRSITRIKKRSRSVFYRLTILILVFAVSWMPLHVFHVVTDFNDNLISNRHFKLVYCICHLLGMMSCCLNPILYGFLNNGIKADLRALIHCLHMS
Procedure: D. Rat NYP5 Cyclase Assay (In Vitro Functional Assay)
Cells stably expressing the rat NPY5 receptor are resuspended in serum-free DMEM containing 10 mM HEPES (pH 7.4) and 1 mM isobutylmethylxanthine (IBMX). 1 μM forskolin and drug dilution are then added to the cells. After a 20 minute incubation of the samples at 37° C., the assay is stopped by placing the samples in boiling water for 3 minutes. The cAMP produced in each sample is quantitated with a radioimmunoassay kit (NEN Dupont). Data are expressed as a percentage of forskolin-stimulated adenylate cyclase.

Human NPY5 Receptor = biological target: T2, Human NPY5 Receptor (Homo sapiens, UniProt Q15761); test: Human NPY5 Receptor Binding Assay; settings: [125I]PYY; read-out: hNPY5 IC50
T2 sequence (Q15761 1-445): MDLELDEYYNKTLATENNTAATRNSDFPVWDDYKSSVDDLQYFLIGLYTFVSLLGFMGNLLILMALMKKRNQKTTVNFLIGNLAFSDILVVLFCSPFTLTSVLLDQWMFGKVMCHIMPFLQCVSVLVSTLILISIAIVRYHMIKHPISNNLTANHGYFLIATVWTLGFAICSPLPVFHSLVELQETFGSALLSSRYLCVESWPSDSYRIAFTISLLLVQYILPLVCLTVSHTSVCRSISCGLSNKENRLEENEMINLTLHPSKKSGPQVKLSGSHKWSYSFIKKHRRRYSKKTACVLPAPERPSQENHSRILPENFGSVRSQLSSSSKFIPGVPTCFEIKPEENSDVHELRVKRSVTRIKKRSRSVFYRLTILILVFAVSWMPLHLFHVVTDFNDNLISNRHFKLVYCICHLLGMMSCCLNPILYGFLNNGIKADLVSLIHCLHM
Procedure: Human and Rat NPY5 Receptor Binding Assays
Binding assays are performed on GF/C Millipore 96-well plates pretreated with 0.02% polyethylenimine. The binding buffer is 25 mM Tris, 120 mM NaCl, 5 mM KCl, 1.2 mM KH2 PO4, 2.5 mM CaCl2, 1.2 mM MgSO4, 0.1% BSA and 0.5 mg/ml bacitracin, pH 7.4. Samples consist of membrane protein, 75-100 pM [125I]PYY (porcine, NEN-DuPont) and drug dilution. Nonspecific binding is defined by 1 μM PYY. After a 2 hour incubation at room temperature with constant mixing, the samples are aspirated on a vacuum manifold, and rinsed with ice-cold binding buffer. The amount of radioactivity in each well is quantitated with either gamma counting or liquid scintillation. IC50 values, which correspond to 50% inhibition of specific binding, are determined with non-linear regression analysis.

Human NPY2 receptor = biological target: T3, Human NPY2 receptor (Homo sapiens, UniProt P49146); test: Human NPY2 Receptor Binding Assay; settings: [125I]PYY; read-out: hPPY2 IC50
T3 sequence (P49146 1-381): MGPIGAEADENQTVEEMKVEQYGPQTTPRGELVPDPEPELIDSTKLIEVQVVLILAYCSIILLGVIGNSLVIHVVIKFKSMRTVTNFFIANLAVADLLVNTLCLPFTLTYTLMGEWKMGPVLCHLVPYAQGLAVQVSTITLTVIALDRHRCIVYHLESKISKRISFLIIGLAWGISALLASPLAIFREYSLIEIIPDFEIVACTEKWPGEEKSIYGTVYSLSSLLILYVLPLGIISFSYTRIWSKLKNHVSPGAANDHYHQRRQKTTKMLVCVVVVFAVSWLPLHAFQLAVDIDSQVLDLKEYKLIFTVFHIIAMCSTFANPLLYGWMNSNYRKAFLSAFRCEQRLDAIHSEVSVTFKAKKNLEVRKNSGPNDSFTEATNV

Human NPY1 Receptor = biological target: T4, Human NPY1 Receptor (Homo sapiens, UniProt P25929); test: Human NPY1 Receptor Binding Assay; settings: SK-N-MC cells, [125I]PYY; read-out: hNPY1 IC50
T4 sequence (P25929 1-384): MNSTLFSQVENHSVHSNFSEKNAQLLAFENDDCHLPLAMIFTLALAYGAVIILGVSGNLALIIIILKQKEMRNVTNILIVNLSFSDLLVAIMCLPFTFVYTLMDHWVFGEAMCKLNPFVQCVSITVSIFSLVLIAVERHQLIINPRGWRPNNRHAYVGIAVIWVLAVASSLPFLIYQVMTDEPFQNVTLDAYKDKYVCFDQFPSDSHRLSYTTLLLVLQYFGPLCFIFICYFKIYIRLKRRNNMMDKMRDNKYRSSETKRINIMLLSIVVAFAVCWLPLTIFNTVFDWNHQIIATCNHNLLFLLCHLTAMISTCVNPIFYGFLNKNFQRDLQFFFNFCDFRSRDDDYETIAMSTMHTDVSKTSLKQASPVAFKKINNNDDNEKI

Rat NPY5 Receptor [2] = biological target: T1, Rat NPY5 Receptor; test: Rat NPY5 Receptor Binding Assay; settings: [125I]PYY; read-out: rNPY5 IC50
Human NPY4/PP1 receptor = Human NPY4/PP1 receptor (Homo sapiens, UniProt P50391); test: Human NPY4/PP1 Receptor Binding Assay; settings: [125I]human PP; read-out: hNPY4 IC50
Human NPY4/PP1 receptor, sequence (P50391 whole entry): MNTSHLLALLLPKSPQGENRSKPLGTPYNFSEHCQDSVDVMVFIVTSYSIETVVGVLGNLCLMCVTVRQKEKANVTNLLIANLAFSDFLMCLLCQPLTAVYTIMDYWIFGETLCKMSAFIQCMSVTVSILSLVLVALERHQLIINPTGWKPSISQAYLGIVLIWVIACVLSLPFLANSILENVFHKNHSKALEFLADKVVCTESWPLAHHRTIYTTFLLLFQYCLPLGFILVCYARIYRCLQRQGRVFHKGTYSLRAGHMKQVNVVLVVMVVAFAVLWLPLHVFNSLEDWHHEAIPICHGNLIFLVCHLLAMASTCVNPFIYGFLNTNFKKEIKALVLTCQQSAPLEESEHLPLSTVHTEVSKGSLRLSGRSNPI

Row | activity at 10 µM (Rat NPY5 Receptor [1]) [%] | IC50 (Human NPY5 Receptor) [nM] | IC50 (Human NPY2 receptor) [µM] | IC50 (Human NPY1 Receptor) [µM] | IC50 (Rat NPY5 Receptor [2]) [nM] | IC50 (Human NPY4/PP1 receptor) [µM] | SMILES
1 | – | 870 | > 5 | > 5 | 760 | > 5 | O=C(CSc1ccccn1)Nc1ccc(C2CCCCC2)cc1 [Compound 182, N-(4-Cyclohexyl-phenyl)-2-(pyridin-2-ylsulfanyl)-acetamide, reference compound]
2 | – | > 10000 | > 5 | > 5 | > 10000 | > 5 | O=C(CSC1=NCCN1)Nc1ccc(Cl)cc1 [Compound 187, N-(4-Chloro-phenyl)-2-(4,5-dihydro-1H-imidazol-2-ylsulfanyl)-acetamide, reference compound]

Second part, the molecule before the results:

Row | SMILES | activity at 10 µM (Rat NPY5 Receptor [1]) [%] | IC50 (Human NPY5 Receptor) [nM] | IC50 (Human NPY2 receptor) [µM] | IC50 (Human NPY1 Receptor) [µM] | IC50 (Rat NPY5 Receptor [2]) [nM] | IC50 (Human NPY4/PP1 receptor) [µM]
3 | Cn1ccnc1SCC(=O)Nc1ccc(C2CCCCC2)cc1 [Compound 3, N-(4-Cyclohexyl-phenyl)-2-(1-methyl-1H-imidazol-2-ylsulfanyl)-acetamide Hydrochloride] | 103 | 160 | > 5 | > 5 | 120 | > 5
4 | Cn1nnnc1SCC(=O)Nc1ccc(C2CCCCC2)cc1 [Compound 8, N-(4-Cyclohexyl-phenyl)-2-(1-methyl-1H-tetrazol-5-ylsulfanyl)-acetamide] | 99 | 160 | > 5 | > 5 | 29 | > 5
5 | Nc1nnc(SCC(=O)Nc2ccc(C3CCCCC3)cc2)s1 [Compound 51, 2-(-Amino-[1,3,4]thiadiazol-2-ylsulfanyl)-N-4-cydohexyl-phenyl-cetamide] | 105 | 220 | > 5 | – | – | –
